# In ChEMBL document CHEMBL5505954, “Design, synthesis and biological evaluation of the positional isomers of the galactose conjugates able to target hepatocellular carcinoma cells via ASGPR-mediated cellular uptake and cytotoxicity” (Eur J Med Chem, 2024):
# The source made the active and inactive calls. No cut-off for these calls is given here.
# Tests used:
# [1] = Drug uptake in human HepG2 cells assessed as increase in fluorescence intensity at 25 uM by DAPI staining based confocal laser scanning microscopic analysis; type: ADME, cell-based; details: hepg2, 25 µM, TDE = time-dependent effect, time 0-4 hrs
# [2] = Drug uptake in human HepG2 cells assessed as increase in fluorescence intensity at 25 uM at 4 degreeC incubated for 4 hrs by DAPI staining based confocal laser scanning microscopic analysis; type: ADME, cell-based; details: hepg2, 4 h
# [3] = Drug uptake in human Huh-7 cells harboring low ASGPR expression assessed as increase in fluorescence intensity at 25 uM incubated for 4 hrs by DAPI staining based confocal laser scanning microscopic analysis; type: ADME, cell-based; details: huh-7, 4 h
# [4] = Drug uptake in human HepG2 cells assessed as increase in fluorescence intensity incubated for 4 hrs by DAPI staining based confocal laser scanning microscopic analysis; type: ADME, cell-based; details: hepg2, 4 h, dose 0-50 µM
# [5] = Drug uptake in human A549 cells assessed as increase in fluorescence intensity at 25 uM incubated for 4 hrs by DAPI staining based confocal laser scanning microscopic analysis; type: ADME, cell-based; details: a549, 4 h
# [6] = Drug uptake in human DU-145 cells lacking ASGPR expression assessed as increase in fluorescence intensity at 25 uM incubated for 4 hrs by DAPI staining based confocal laser scanning microscopic analysis; type: ADME, cell-based; details: du-145, 4 h
# [7] = Drug uptake in human A549 cells lacking ASGPR expression assessed as increase in fluorescence intensity at 25 uM incubated for 4 hrs by DAPI staining based confocal laser scanning microscopic analysis; type: ADME, cell-based; details: a549, 4 h
# [8] = Drug uptake in human HepG2 cells overexpressing ASGPR assessed as increase in fluorescence intensity at 25 uM incubated for 4 hrs by DAPI staining based confocal laser scanning microscopic analysis; type: ADME, cell-based; details: hepg2, 4 h
# [9] = Drug uptake in human HepG2 cells assessed as increase in fluorescence intensity at 25 uM incubated for 4 hrs by DAPI staining based confocal laser scanning microscopic analysis; type: ADME, cell-based; details: hepg2, 4 h
# HepG2 [10] = experiment: Cytotoxicity against human HepG2 cells assessed as inhibition of cell growth incubated for 48 hrs by CCK-8 assay; type: functional, cell-based; details: HepG2, 48 h
# [11] = Potency index, ratio of test compound IC50 to doxorubicin IC50 for cytotoxicity against human HL7702 cells assessed as inhibition of cell growth incubated for 48 hrs by CCK-8 assay; type: toxicity, cell-based; details: HL7702 (L02) cells, read-out: Ratio IC50
# Huh-7 = experiment: Cytotoxicity against human Huh-7 cells assessed as inhibition of cell growth incubated for 48 hrs by CCK-8 assay; type: functional, cell-based; details: Huh-7, 48 h
# Bel-7402 = experiment: Cytotoxicity against human Bel-7402 cells assessed as inhibition of cell growth incubated for 48 hrs by CCK-8 assay; type: functional, cell-based; details: Bel-7402, 48 h
# DU-145 = experiment: Cytotoxicity against human DU-145 cells assessed as inhibition of cell growth incubated for 48 hrs by CCK-8 assay; type: functional, cell-based; details: DU-145, 48 h
# A549 = experiment: Cytotoxicity against human A549 cells assessed as inhibition of cell growth incubated for 48 hrs by CCK-8 assay; type: functional, cell-based; details: A549, 48 h
# [12] = Cytotoxicity against human HL7702 cells assessed as inhibition of cell growth incubated for 48 hrs by CCK-8 assay; type: toxicity, cell-based; details: HL7702 (L02) cells
# HepG2 [13] = experiment: Cytotoxicity against human HepG2 cells harboring siRNA mediated ASGPR knockdown assessed as inhibition of cell growth by measuring increase in IC50 at 0.125 to 16 uM incubated for 48 hrs by CCK-8 assay; type: functional, cell-based; details: dose 0.125-16 µM
# HepG2 [14] = experiment: Competitive binding affinity to ASGPR in human HepG2 cells assessed as reduction in drug uptake pretreated for 0.5 hrs followed by 2-(-5-(-3,3-dimethyl-1-(6-oxo-6-((5-(((2R,3R,4S,5R)-3,4,5,6-tetrahydroxytetrahydro-2H-pyran-2-yl)methoxy)pentyl)amino)hexyl)-5-sulfoindolin-2-ylidene)penta-1,3-dien-1-yl …; type: cell-based; details: time 4.5 hrs
structure (smiles),measurement,setting,value
CC[N+]1=C(/C=C/C=C/C=C2/N(CCCCCC(=O)NCCCCCOC[C@H]3OC(O)[C@H](O)[C@@H](O)[C@H]3O)c3ccc(S(=O)(=O)O)cc3C2(C)C)C(C)(C)c2cc(S(=O)(=O)[O-])ccc21 (stereo not given in full),Drug uptake,[1],Tde
same,Drug uptake,[2],Not Active
same,Drug uptake,[3],Not Active
same,Drug uptake,[4],Dose-Dependent Effect
same,Drug uptake,[5],Active
same,Drug uptake,[6],Not Active
same,Drug uptake,[7],Not Active
same,Drug uptake,[8],Active
same,Drug uptake,[9],Active
CC[N+]1=C(/C=C/C=C/C=C2/N(CCCCCC(=O)NCCCCCO[C@H]3C(O)O[C@H](OO)[C@H](O)[C@@H]3O)c3ccc(S(=O)(=O)O)cc3C2(C)C)C(C)(C)c2cc(S(=O)(=O)[O-])ccc21 (stereo not given in full),Drug uptake,[5],Active
same,Drug uptake,[9],Active
COc1cccc2c1C(=O)c1c(O)c3c(c(O)c1C2=O)C[C@@](O)(C(=O)CO)C[C@@H]3O[C@H]1C[C@H](NC(=O)CCCCCO[C@H]2C(O)O[C@H](CO)[C@H](O)[C@@H]2O)[C@H](O)[C@H](C)O1 (stereo not given in full),IC50,HepG2 [10],3.44 µM
same,selectivity ratio at 48 h,[11],> 12
same,IC50,Huh-7,1.14 µM
same,IC50,Bel-7402,3.11 µM
same,IC50,DU-145,0.88 µM
same,IC50,A549,9.35 µM
same,IC50 at 48 h,[12],9.68 µM
same,Activity,HepG2 [13],Active
CC[N+]1=C(/C=C/C=C/C=C2/N(CCCCCC(=O)NCCCCCOC3O[C@H](CO)[C@H](O)[C@H](O)[C@H]3O)c3ccc(S(=O)(=O)O)cc3C2(C)C)C(C)(C)c2cc(S(=O)(=O)[O-])ccc21 (stereo not given in full),Drug uptake,[5],Active
same,Drug uptake,[9],Active
COc1cccc2c1C(=O)c1c(O)c3c(c(O)c1C2=O)C[C@@](O)(C(=O)CO)C[C@@H]3O[C@H]1C[C@H](NC(=O)CCCCCO[C@@H]2O[C@H](CO)[C@H](O)[C@H](O)[C@H]2O)[C@H](O)[C@H](C)O1,IC50,HepG2 [10],6.71 µM
same,selectivity ratio at 48 h,[11],> 12
same,IC50,Huh-7,1.29 µM
same,IC50,Bel-7402,4.67 µM
same,IC50,DU-145,2.67 µM
same,IC50,A549,> 10 µM
same,IC50 at 48 h,[12],> 10 µM
same,Activity,HepG2 [13],Active
COc1cccc2c1C(=O)c1c(O)c3c(c(O)c1C2=O)C[C@@](O)(C(=O)CO)C[C@@H]3O[C@H]1C[C@H](NC(=O)CCCCCOC[C@H]2OC(O)[C@H](O)[C@@H](O)[C@H]2O)[C@H](O)[C@H](C)O1 (stereo not given in full),IC50,HepG2 [10],> 10 µM
same,selectivity ratio at 48 h,[11],> 12
same,IC50,Huh-7,> 10 µM
same,IC50,Bel-7402,> 10 µM
same,IC50,DU-145,6.74 µM
same,IC50,A549,> 10 µM
same,IC50 at 48 h,[12],> 10 µM
CC(=O)N[C@H]1C(O)O[C@H](CO)[C@H](O)[C@@H]1O (stereo not given in full),Activity,HepG2 [14],Dose-Dependent Effect
CC[N+]1=C(/C=C/C=C/C=C2/N(CCCCCC(=O)NCCCCCO[C@H]3[C@@H](O)[C@@H](CO)OC(O)[C@@H]3O)c3ccc(S(=O)(=O)O)cc3C2(C)C)C(C)(C)c2cc(S(=O)(=O)[O-])ccc21 (stereo not given in full),Drug uptake,[5],Active
same,Drug uptake,[9],Active
CC[N+]1=C(/C=C/C=C/C=C2/N(CCCCCC(=O)NCCCCCO[C@@H]3[C@H](O)[C@@H](O)C(O)O[C@@H]3CO)c3ccc(S(=O)(=O)O)cc3C2(C)C)C(C)(C)c2cc(S(=O)(=O)[O-])ccc21 (stereo not given in full),Drug uptake,[5],Active
same,Drug uptake,[9],Active
OC[C@H]1OC(O)[C@H](O)[C@@H](O)[C@H]1O (stereo not given in full),Activity,HepG2 [14],Dose-Dependent Effect
COc1cccc2c1C(=O)c1c(O)c3c(c(O)c1C2=O)C[C@@](O)(C(=O)CO)C[C@@H]3O[C@H]1C[C@H](N)[C@H](O)[C@H](C)O1 [DOXORUBICIN],IC50,Huh-7,0.12 µM
same,IC50,Bel-7402,0.43 µM
same,IC50,DU-145,< 0.1 µM
